Source: US20180071284A1, “PREVENTING OR TREATING VIRAL INFECTION BY INHIBITION OF THE HISTONE METHYLTRANSFERASE EZH1 OR EZH2” (The United States of America, as represented by the …, priority 2015, published 2018)
Entries after “also recorded” stand apart in the source; their conditions may differ.

What was measured:
Format in all cases: cell-based, herpes simplex virus 1 (HSV-1)
[1] = tested on: HSV-1; test: UL29+ single neurons and neuron clusters in explanted trigeminal ganglia; conditions: explant 48-hrs; compound 1 35 μM, compound 4 30 μM, ACV 100 μM, ML324 50 μM
Source text: (§1) Trigeminal ganglia were fixed in paraformaldehyde and tissue sections were contained with anti-UL29 and DAPI. The HSV E gene UL29 (DNA single strand binding replication protein) was used a marker for viral reactivation. Tissue sections were scored for UL29+ cell clusters (clusters indicate viral spread from the primary neuron to surrounding cells) and for individual neurons representing the primary reactivation event (single) (FIGS. 18 and 19).
as §1, with “costained” for “contained”, “(FIG. 25).” for “(FIGS. 18 and 19).”

[2] = tested on: HSV-1; test: Removal of inhibitors prior to HSV-1 infection of HFF cells (mRNA levels); conditions: washed, then infected; for HSV IE expression after removal of compound prior to infection: 5-hrs treatment (compound 1 35 μM, 2 15 μM, 3 30 μM, 4 30 μM); for IL6 stimulation after removal of compound prior to infection: 5-hrs treatment
Protocol: HFF cells were treated with inhibitors targeting the catalytic SET domain (compound 1, 35 μM: EZH2; compound 2, 15 μM: EZH2 and EZH1; compound 4, 30 μM: EZH2), EED-EZH2 and EED-EZH1 (compound 3, 30 μM), or DMSO (control) for 5-hrs. Cells were then washed with phosphate buffered saline (PBS) and replaced with media with no inhibitors for the indicated time in FIGS. 21-24 prior to infection with HSV-1 (2.0 PFU per cell) for 1.5-hrs in the absence of inhibitors.

[3] = tested on: HSV-1; test: Mouse trigeminal ganglia explant reactivation model, viral yield titrated on Vero cells; conditions: explant 48-hrs; compound 1 35 μM, compound 3 30 μM, compound 4 30 μM
Protocol: Trigeminal ganglia from HSV-1 latently infected mice were bisected. Half were explanted in media with control DMSO (vehicle), and the other half were explanted in media with ACV (100 μM), ML324 (50 μM), compound 1 (35 μM), compound 3 (30 μM), or compound 4 (30 μM) for 48-hrs to induce viral reactivation. Viral yields were determined by titrating on Vero cells. Each point represents the titer of one explanted trigeminal ganglia.

[4] = tested on: HSV-1; test: HSV-1 cellular and nuclear entry (viral DNA in total and nuclear fractions of HFF cells); conditions: compound 1 35 μM, compound 4 30 μM, 5-hrs pretreatment, HSV-1 2.0 PFU per cell 1.5-hrs
Protocol: HFF cells were treated with the EZH1/2 catalytic inhibitor compound 1 (35 μM), compound 4 (30 μM), or DMSO (vehicle) for 5-hrs. The HFF cells were then infected with HSV-1 (2.0 PFU per cell) for 1.5-hrs in the presence of the inhibitors or DMSO (vehicle). The levels of HSV viral DNA isolated from total and nuclear cellular fractions are expressed as ratios relative to DMSO (vehicle).

[5] = tested on: HSV-1; test: Spread of HSV infection in HFF cells (UL29 staining); conditions: HSV-1 MOI 0.01 for 8.5-hrs, then treated for 12.5-hrs (30 μM)
Protocol: HFF cells were mock or infected with HSV-1 (MOI 0.01) for 8.5-hrs to allow one round of the viral replication program. The HFF cells were then treated with EZH1/2 inhibitor (compound 1 or compound 4 at 30 μM), viral DNA polymerase inhibitor (ACV at 100 μM), or JMJD3 inhibitor (ML324 at 50 μM) for an additional 12.5-hrs. Cells were paraformaldehyde fixed, permeabilized, and stained for the viral E gene UL29 and actin. The viral E protein UL29 was used as a marker for the spread of viral infection.
HFF cells were mock or infected with HSV-1 (MOI 0.01) for 8.5-hrs to allow one round of the viral replication program. HFF cells were then treated with EZH1/2 (compound 1, compound 4), viral DNA polymerase (ACV), or JMJD3 (ML324) inhibitors for additional 12.5-hrs. Cells were paraformaldehyde fixed, permeabilized, and stained for the viral E gene UL29 and actin (Phalloidin). The viral E protein UL29 was used as a marker for the spread of viral infection.

[6] = tested on: HSV-1; test: HSV-1 viral IE mRNA levels in infected Vero (IFN-β null, IRF3 deficient) cells; conditions: 5-hrs pretreatment, HSV-1 2.0 PFU per cell
Protocol: HFF (wild-type) and Vero (IFN-β null, IRF3 deficient) cells were treated with the indicated concentration of EZH1/2 catalytic inhibitor (compound 1 or 4) or DMSO (vehicle) for 5-hrs. HFF and Vero cells were then infected with HSV-1 (2.0 PFU per cell) for 1.5-hrs in the presence of inhibitor or DMSO. The levels of HSV viral IE (ICP0, ICP4, ICP22, and ICP27) and cellular control (SP1 and TBP) mRNAs are expressed relative to cells treated with DMSO (vehicle).

Row | SMILES | primary reactivation (UL29+ single neurons) [1] | HSV IE expression after removal of compound prior to infection [2] | IL6 stimulation after removal of compound prior to infection [2] | HSV reactivation from latency (viral yield per explanted trigeminal ganglia) [3] | secondary spread of HSV (UL29+ neuron clusters) [1] | HSV-1 viral entry (total and nuclear) [4] | spread of HSV infection to adjacent cells (UL29 marker) [5] | antiviral activity (HSV IE mRNA) in Vero cells as compared to HFF (wild-type) cells [6]
1 | Nc1nc2c(ncn2COCCO)c(=O)[nH]1 [ACV, Acyclovir] | reduced | – | – | – | – | – | – | –
2 | CCCc1cc(C)[nH]c(=O)c1CNC(=O)c1cc(-c2ccc(N3CCN(C(C)C)CC3)nc2)cc2c1cnn2C(C)C [compound 2, UNC1999] | – | recovery of HSV IE expression | decrease in IL6 stimulation | – | – | – | – | –
3 | COc1ccc(CCN2CCC(Nc3nc4ccccc4n3Cc3ccc(F)cc3)CC2)cc1 [compound 3, astemizole] | – | recovery of HSV IE expression | – | block HSV reactivation from latency | – | – | – | –
4 | CN(C)CCCNC(=O)c1ccc(-c2cc(O)c3ncccc3c2)cc1 [ML324, N-(3-(dimethylamino)propyl)-4-(8-hydroxyquinolin-6-yl)benzamide] | reduced | – | – | – | reduced | – | – | –
5 | CCCc1cc(C)[nH]c(=O)c1CNC(=O)c1cc(-c2ccnc(N3CCN(C)CC3)c2)cc2c1cnn2C(C)C [compound 1, GSK343] | reduced | recovery of HSV IE expression | decrease in IL6 stimulation | block HSV reactivation from latency | reduced | no impact | block the spread of HSV to adjacent cells; also recorded: block the spread of HSV infection | lack of antiviral activity
